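GI50 = concentration required for 50% inhibition of growth. TGI: total growth inhibition.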
Tests used:
Assay in all cases: NCI-60 cell line screen, 384-well format
786-0 renal = system: 786-0 renal
A498 renal = system: A498 renal
A549 NSCLC = system: A549 NSCLC
ACHN renal = system: ACHN renal
BT-549 breast = system: BT-549 breast
CAKI-1 renal = system: CAKI-1 renal
CCRF-CEM leukemia = system: CCRF-CEM leukemia
COLO 205 colon = system: COLO 205 colon
DU-145 prostate = system: DU-145 prostate
EKVX NSCLC = system: EKVX NSCLC
HCC-2998 colon = system: HCC-2998 colon
HCT-116 colon = system: HCT-116 colon
HCT-15 colon = system: HCT-15 colon
HL-60(TB) leukemia = system: HL-60(TB) leukemia
HOP-62 NSCLC = system: HOP-62 NSCLC
HOP-92 NSCLC = system: HOP-92 NSCLC
HS 578T breast = system: HS 578T breast
HT29 colon = system: HT29 colon
IGROV1 ovarian = system: IGROV1 ovarian
K-562 leukemia = system: K-562 leukemia
KM12 colon = system: KM12 colon
LOX IMVI melanoma = system: LOX IMVI melanoma
M14 melanoma = system: M14 melanoma
MALME-3M melanoma = system: MALME-3M melanoma
MCF7 breast = system: MCF7 breast
MDA-MB-231 breast = system: MDA-MB-231 breast
MDA-MB-435 melanoma = system: MDA-MB-435 melanoma
MDA-MB-468 breast = system: MDA-MB-468 breast
MOLT-4 leukemia = system: MOLT-4 leukemia
NCI-H226 lung = system: NCI-H226 lung
NCI-H23 lung = system: NCI-H23 lung
NCI-H322M lung = system: NCI-H322M lung
NCI-H460 NSCLC = system: NCI-H460 NSCLC
NCI-H522 lung = system: NCI-H522 lung
NCI/ADR-RES ovarian = system: NCI/ADR-RES ovarian
OVCAR-3 ovarian = system: OVCAR-3 ovarian
OVCAR-4 ovarian = system: OVCAR-4 ovarian
OVCAR-5 ovarian = system: OVCAR-5 ovarian
PC-3 prostate = system: PC-3 prostate
RPMI-8226 leukemia = system: RPMI-8226 leukemia
RXF 393 renal = system: RXF 393 renal
SF-268 CNS = system: SF-268 CNS
SF-295 CNS = system: SF-295 CNS
SF-539 CNS = system: SF-539 CNS
SK-MEL-2 melanoma = system: SK-MEL-2 melanoma
SK-MEL-28 melanoma = system: SK-MEL-28 melanoma
SK-MEL-5 melanoma = system: SK-MEL-5 melanoma
SK-OV-3 ovarian = system: SK-OV-3 ovarian
SN12C renal = system: SN12C renal
SNB-75 CNS = system: SNB-75 CNS
SR leukemia = system: SR leukemia
SW-620 colon = system: SW-620 colon
T-47D breast = system: T-47D breast
TK-10 renal = system: TK-10 renal
U251 glioblastoma = system: U251 glioblastoma
UACC-257 melanoma = system: UACC-257 melanoma
UACC-62 melanoma = system: UACC-62 melanoma
UO-31 renal = system: UO-31 renal

**Q.** With `O=C(O)c1ccc2c(c1)nc(Nc1cccc(Cl)c1)c1ccncc12` as the molecule, how does the GI50 ([…]-0 renal) read?
**A.** 1750 nM

**Q.** What about the TGI (786-0 renal) of the same molecule?
**A.** 4.75 µM

**Q.** What about the GI50 (A498 renal) of the same molecule?
**A.** 1420 nM

**Q.** What about the TGI (A498 renal) of the same molecule?
**A.** 3.31 µM

**Q.** And the GI50 (A549 NSCLC)?
**A.** 2990 nM

**Q.** And the TGI (A549 NSCLC)?
**A.** > 100 µM

**Q.** What about the GI50 (ACHN renal) of the same molecule?
**A.** 2520 nM

**Q.** And the TGI (ACHN renal)?
**A.** 8.01 µM

**Q.** What about the GI50 (BT-549 breast) of the same molecule?
**A.** 1020 nM

**Q.** What about the TGI (BT-549 breast) of the same molecule?
**A.** 2670 nM

**Q.** What about the GI50 (CAKI-1 renal) of the same molecule?
**A.** 1530 nM

**Q.** And the TGI (CAKI-1 renal)?
**A.** 3.73 µM

**Q.** What about the GI50 (CCRF-CEM leukemia) of the same molecule?
**A.** 1180 nM

**Q.** And the TGI (CCRF-CEM leukemia)?
**A.** 2420 nM

**Q.** And the GI50 (COLO 205 colon)?
**A.** 1860 nM

**Q.** What about the TGI (COLO 205 colon) of the same molecule?
**A.** 4.14 µM

**Q.** What about the GI50 (DU-145 prostate) of the same molecule?
**A.** 1710 nM

**Q.** And the TGI (DU-145 prostate)?
**A.** 5.2 µM

**Q.** What about the GI50 (EKVX NSCLC) of the same molecule?
**A.** 1480 nM

**Q.** And the TGI (EKVX NSCLC)?
**A.** 3.93 µM

**Q.** And the GI50 (HCC-2998 colon)?
**A.** 1380 nM

**Q.** And the TGI (HCC-2998 colon)?
**A.** 3.89 µM

**Q.** And the GI50 (HCT-116 colon)?
**A.** 1530 nM

**Q.** What about the TGI (HCT-116 colon) of the same molecule?
**A.** 3.08 µM

**Q.** What about the GI50 (HCT-15 colon) of the same molecule?
**A.** 1740 nM

**Q.** What about the TGI (HCT-15 colon) of the same molecule?
**A.** 3.66 µM

**Q.** What about the GI50 (HL-60(TB) leukemia) of the same molecule?
**A.** 1540 nM

**Q.** And the TGI (HL-60(TB) leukemia)?
**A.** 2930 nM

**Q.** And the GI50 (HOP-62 NSCLC)?
**A.** 1730 nM

**Q.** What about the TGI (HOP-62 NSCLC) of the same molecule?
**A.** 3.86 µM

**Q.** And the GI50 (HOP-92 NSCLC)?
**A.** 1420 nM

**Q.** What about the TGI (HOP-92 NSCLC) of the same molecule?
**A.** 4.65 µM

**Q.** What about the GI50 (HS 578T breast) of the same molecule?
**A.** 445 nM

**Q.** And the TGI (HS 578T breast)?
**A.** 2330 nM

**Q.** And the GI50 (HT29 colon)?
**A.** 2950 nM

**Q.** What about the TGI (HT29 colon) of the same molecule?
**A.** 10.1 µM

**Q.** What about the GI50 (IGROV1 ovarian) of the same molecule?
**A.** 1950 nM

**Q.** And the TGI (IGROV1 ovarian)?
**A.** 4.64 µM

**Q.** What about the GI50 (K-562 leukemia) of the same molecule?
**A.** 1500 nM

**Q.** What about the TGI (K-562 leukemia) of the same molecule?
**A.** 3.32 µM

**Q.** What about the GI50 (KM12 colon) of the same molecule?
**A.** 1890 nM

**Q.** What about the TGI (KM12 colon) of the same molecule?
**A.** 4.38 µM

**Q.** And the GI50 (LOX IMVI melanoma)?
**A.** 1870 nM

**Q.** And the TGI (LOX IMVI melanoma)?
**A.** 3.8 µM

**Q.** What about the GI50 (M14 melanoma) of the same molecule?
**A.** 1270 nM

**Q.** And the TGI (M14 melanoma)?
**A.** 3.08 µM

**Q.** And the GI50 (MALME-3M melanoma)?
**A.** 1040 nM

**Q.** What about the TGI (MALME-3M melanoma) of the same molecule?
**A.** 2560 nM

**Q.** What about the GI50 (MCF7 breast) of the same molecule?
**A.** 1490 nM

**Q.** And the TGI (MCF7 breast)?
**A.** 4.06 µM

**Q.** What about the GI50 (MDA-MB-231 breast) of the same molecule?
**A.** 1560 nM

**Q.** And the TGI (MDA-MB-231 breast)?
**A.** 3.7 µM

**Q.** And the GI50 (MDA-MB-435 melanoma)?
**A.** 1450 nM

**Q.** And the TGI (MDA-MB-435 melanoma)?
**A.** 3.33 µM

**Q.** What about the GI50 (MDA-MB-468 breast) of the same molecule?
**A.** 656 nM

**Q.** What about the TGI (MDA-MB-468 breast) of the same molecule?
**A.** 2050 nM

**Q.** And the GI50 (MOLT-4 leukemia)?
**A.** 1400 nM

**Q.** What about the TGI (MOLT-4 leukemia) of the same molecule?
**A.** 2730 nM

**Q.** And the GI50 (NCI-H226 lung)?
**A.** 1260 nM

**Q.** What about the TGI (NCI-H226 lung) of the same molecule?
**A.** 2660 nM

**Q.** What about the GI50 (NCI-H23 lung) of the same molecule?
**A.** 1420 nM

**Q.** What about the TGI (NCI-H23 lung) of the same molecule?
**A.** 2970 nM

**Q.** What about the GI50 (NCI-H322M lung) of the same molecule?
**A.** 1080 nM

**Q.** What about the TGI (NCI-H322M lung) of the same molecule?
**A.** 3.29 µM

**Q.** What about the GI50 (NCI-H460 NSCLC) of the same molecule?
**A.** 2280 nM

**Q.** And the TGI (NCI-H460 NSCLC)?
**A.** 7.89 µM

**Q.** And the GI50 (NCI-H522 lung)?
**A.** 521 nM

**Q.** And the TGI (NCI-H522 lung)?
**A.** 1840 nM

**Q.** And the GI50 (NCI/ADR-RES ovarian)?
**A.** 1690 nM

**Q.** What about the TGI (NCI/ADR-RES ovarian) of the same molecule?
**A.** 3.28 µM

**Q.** What about the GI50 (OVCAR-3 ovarian) of the same molecule?
**A.** 399 nM

**Q.** And the TGI (OVCAR-3 ovarian)?
**A.** 1950 nM

**Q.** What about the GI50 (OVCAR-4 ovarian) of the same molecule?
**A.** 1540 nM

**Q.** And the TGI (OVCAR-4 ovarian)?
**A.** 6.77 µM

**Q.** What about the GI50 (OVCAR-5 ovarian) of the same molecule?
**A.** 1770 nM

**Q.** And the TGI (OVCAR-5 ovarian)?
**A.** 8.81 µM

**Q.** And the GI50 (PC-3 prostate)?
**A.** 1600 nM

**Q.** And the TGI (PC-3 prostate)?
**A.** 3.69 µM

**Q.** And the GI50 (RPMI-8226 leukemia)?
**A.** 1880 nM

**Q.** What about the TGI (RPMI-8226 leukemia) of the same molecule?
**A.** 3.35 µM

**Q.** And the GI50 (RXF 393 renal)?
**A.** 1560 nM

**Q.** What about the TGI (RXF 393 renal) of the same molecule?
**A.** 3.98 µM

**Q.** And the GI50 (SF-268 CNS)?
**A.** 1150 nM

**Q.** What about the TGI (SF-268 CNS) of the same molecule?
**A.** 2870 nM

**Q.** What about the GI50 (SF-295 CNS) of the same molecule?
**A.** 1810 nM

**Q.** And the TGI (SF-295 CNS)?
**A.** 4.59 µM

**Q.** And the GI50 (SF-539 CNS)?
**A.** 1190 nM

**Q.** And the TGI (SF-539 CNS)?
**A.** 3000 nM

**Q.** And the GI50 (SK-MEL-2 melanoma)?
**A.** 2970 nM

**Q.** What about the TGI (SK-MEL-2 melanoma) of the same molecule?
**A.** 4.54 µM

**Q.** And the GI50 (SK-MEL-28 melanoma)?
**A.** 1470 nM

**Q.** And the TGI (SK-MEL-28 melanoma)?
**A.** 3.16 µM

**Q.** And the GI50 (SK-MEL-5 melanoma)?
**A.** 1400 nM

**Q.** And the TGI (SK-MEL-5 melanoma)?
**A.** 2710 nM

**Q.** And the GI50 (SK-OV-3 ovarian)?
**A.** 1430 nM

**Q.** And the TGI (SK-OV-3 ovarian)?
**A.** 3.94 µM

**Q.** And the GI50 (SN12C renal)?
**A.** 1500 nM

**Q.** What about the TGI (SN12C renal) of the same molecule?
**A.** 3.69 µM

**Q.** And the GI50 (SNB-75 CNS)?
**A.** 1410 nM

**Q.** And the TGI (SNB-75 CNS)?
**A.** 3.85 µM

**Q.** And the GI50 (SR leukemia)?
**A.** 1450 nM

**Q.** And the TGI (SR leukemia)?
**A.** 2770 nM

**Q.** And the GI50 (SW-620 colon)?
**A.** 2030 nM

**Q.** And the TGI (SW-620 colon)?
**A.** 4.79 µM

**Q.** And the GI50 (T-47D breast)?
**A.** 1400 nM

**Q.** What about the TGI (T-47D breast) of the same molecule?
**A.** 3.55 µM

**Q.** And the GI50 (TK-10 renal)?
**A.** 2140 nM

**Q.** What about the TGI (TK-10 renal) of the same molecule?
**A.** 5.81 µM

**Q.** And the GI50 (U251 glioblastoma)?
**A.** 888 nM

**Q.** And the TGI (U251 glioblastoma)?
**A.** 2460 nM

**Q.** What about the GI50 (UACC-257 melanoma) of the same molecule?
**A.** 1570 nM

**Q.** What about the TGI (UACC-257 melanoma) of the same molecule?
**A.** 3.46 µM

**Q.** What about the GI50 (UACC-62 melanoma) of the same molecule?
**A.** 1370 nM

**Q.** And the TGI (UACC-62 melanoma)?
**A.** 2770 nM

**Q.** What about the GI50 (UO-31 renal) of the same molecule?
**A.** 2150 nM

**Q.** What about the TGI (UO-31 renal) of the same molecule?
**A.** 6.11 µM
